“Also recorded” adds a separate entry of the source.
Columns and labels:
Fmr1 KO mice [1] = assay: Three-Chamber Social Interaction Test (TCSIT); format: in vivo, mouse
Description: (§1) Methods. The study was conducted in 10-week-old male Fmr1 KO mice. Animals were dosed per os with vehicle, R(−)-MDMA (8, 17 and 30 mg/kg) or SR-MDMA (8 mg/kg) with a minimum 3-day washout between doses. […] Compounds were administered 30 minutes prior to each behavioral test. Basic statistical analysis was performed. If more than 2 groups were compared with each other, significance was calculated by One-way or Two-way analysis of variance (ANOVA) followed by the Bonferroni post hoc test. In case of non-normally distributed data, significance was calculated by Kruskal-Wallis test followed by Dunn's multiple comparisons test.
To measure sociability, animals were tested in the Three Chamber Social Interaction Test. It consisted of a habituation phase, an approach phase and a recognition phase (FIG. 5).
On the testing day, the test animal was placed in the center of the box and was allowed to explore it for ten minutes with two empty stranger mouse cylinders on each side of the box for habituation.
Social approach: After habituation, the mouse was removed from the box, the box was cleaned with 70% Isopropanol and dried with a hand fan. A sex-matched stranger mouse was placed into the mouse cylinder in the left chamber and the test animal was placed in the center of the box again for ten minutes.
Social recognition: After the social approach, mice were immediately tested for social recognition. The already known mouse stayed in the left chamber and a new mouse was placed under the cylinder in the right chamber. The test mouse was again placed in the middle chamber and, for 10 minutes, it was measured how much time it spent in each chamber and how much time it spent sniffing each mouse. Healthy mice will spend more time with the new mouse due to novelty. Socially disturbed mice might not recognize the already known mouse and spend therefore similar amounts of time with each mouse.
Both social approach and social recognition were recorded and analyzed by using Noldus Ethovision 8.5.
(§2) Methods. The study was conducted in 96 10-week-old male Fmr1 KO mice. Animals were dosed orally with vehicle, R(−)-3,4-MDMA (8, 17 and 30 mg/kg), S-(+)-3,4-MDMA (8 mg/kg) or (±)-3,4-MDMA (8 mg/kg) with a minimum 3-day washout between doses. In the Three-Chamber Social Interaction Test (TCSIT), a stranger animal was placed in one of two wire cylinders in the testing area. The time spent in each of three arenas: the neutral arena, the stranger arena or the empty arena, was assessed (FIG. 5). Animals were evaluated in the Open Field Test (OFT) measuring hyperactivity, locomotor activity, thigmotaxis and grooming duration (FIGS. 7A-7B). In the Ultrasonic Vocalization (USV) test, male mice were exposed to fresh urine from females in the estrous cycle. Vocal emissions were recorded for 5 minutes and analyzed. Compounds were administered 30 minutes before each behavioral test. Significance was calculated by One-way analysis of variance followed by the Bonferroni post hoc test. In non-normally distributed data, Kruskal-Wallis test followed by Dunn's multiple comparisons test was applied.

Fmr1 KO mice [2] = assay: Ultrasonic Vocalization (USV) test; format: in vivo, mouse; conditions: any dose, oral, 5 minutes recording, P<0.001
Description: as §1
Adult male mice emit Ultrasonic Vocalization (USV) under selected experimental conditions, upon encountering a sexually receptive female or female urine. These vocal emissions are considered an index of emotionality, social interest, and motivation.
To induce the estrous cycle in female mice, mice were subcutaneously treated with 50 μl of ß-estradiol 48 hours prior to testing (time sensitive). […]
On the test day, study animals were habituated in a separate soundproof room. Before recording, each mouse was separated from its home cage, placed in another cage that was covered with fresh bedding, and moved to the next soundproof room equipped with an UltraSoundGate Condenser Microphone (CM16; Avisoft Bioacoustics, Berlin, Germany), connected via an Avisoft UltraSoundGate 416 USB Audio device (Avisoft Bioacoustics) to a personal computer, where acoustic data were recorded with a sampling rate of 250,000 Hz in 16-bit format. […] Vocal emission was recorded for 5 minutes.
For acoustical analysis, recordings were transferred to SASLab Pro (Avisoft Bioacoustics) and a fast Fourier transform was conducted (512 FFT length, 100% frame, Hamming window, and 75% time window overlap). […] The total number of vocalizations and the latency to initiate the first call were extracted and evaluated for the whole 5 minutes of recording.
Methods. […] The time spent in each of three arenas: the neutral arena, the stranger arena or the empty arena, was assessed (FIG. 5). […]

Fmr1 KO mice [3] = assay: Open Field Test (OFT) including grooming evaluation; format: in vivo, mouse
Description: as §1
Spontaneous activity and anxiety was assessed in the Open Field by evaluating the following parameters: hyperactivity [s], activity [s], distance [m], rearings [s], rearings [n] and grooming behavior. For that purpose, a Plexiglas Open Field (48×48 cm) in combination with a computerized video tracking system (Noldus Ethovision XT 14) was used (FIGS. 7A-7B).
The mice were brought to the room at least 45 minutes before the start of the testing. Each test session lasted for 5 minutes to check the mice's behavior in the new surroundings, as the first minutes of the Open Field test are the most suitable to display the exploration behavior of the animals. After the testing session, the number of fecal boluses was counted, as a measure of emotionality. The Open Field was cleaned with 70% Isopropanol after each mouse to get rid of odor traces. Testing was performed under standard room lighting conditions during the light phase of the circadian cycle.
as §2

dopamine = conditions: background, receptor studies and limited pre-clinical evidence; cited from earlier work
[4] = background, limited pre-clinical evidence; cited from earlier work
[5] = oral, 30 minutes before test, R compared to S or racemate P<0.001

SMILES	Arena Frequency with the stranger (Fmr1 KO mice [1]; 8 mg/kg oral)	Interaction Duration with the stranger (Fmr1 KO mice [1]; 8 mg/kg oral)	Interaction Index with the stranger (Fmr1 KO mice [1]; 8 mg/kg oral)	interaction with the stranger and empty chamber vs. vehicle-treated animals (Fmr1 KO mice [1]; 8 mg/kg oral)	number of vocalizations (Fmr1 KO mice [2])	Arena Frequency with the stranger (Fmr1 KO mice [1]; 30 mg/kg oral, P<0.001)	interaction with the stranger and empty chamber vs. vehicle-treated animals (Fmr1 KO mice [1]; all three doses (8, 17 and 30 mg/kg) oral, P<0.01)	effect on social interaction compared with S-(+)-3,4-MDMA or (±)-3,4-MDMA (Fmr1 KO mice [1]; conclusion of the study)	social approach and interaction (Fmr1 KO mice [1]; male Fmr1 KO mice, oral 8, 17 and 30 mg/kg, 30 minutes before test)	number of grooming occasions (Fmr1 KO mice [3]; 30 mg/kg oral)	distance moved (Fmr1 KO mice [3]; [5])	hyperactivity (Fmr1 KO mice [3]; [5])	number of grooming occasions (Fmr1 KO mice [3]; oral, R 8, 17, 30 mg/kg, S and racemate 8 mg/kg)	efficacy as a releaser of dopamine (dopamine)	hyperthermia [4]
CNC(C)Cc1ccc2c(c1)OCO2 (racemic) [(±)-3,4-MDMA, S,R(±)-3,4-methylenedioxymethamphetamine]	no effect	no effect	no effect	efficacious only for interaction with the stranger	significantly reduced										
CN[C@H](C)Cc1ccc2c(c1)OCO2 [R(−)-3,4-MDMA, R(−)-3,4-methylenedioxymethamphetamine]					significantly reduced	statistically significant	significant difference	more potent	dose-dependently increased	active	significantly lesser effect	significantly lesser effect; also recorded: significantly reduced hyperactivity effects	less efficacious than S-(+)-3,4-MDMA or (±)-3,4-MDMA	low efficacy	does not produce hyperthermia
CN[C@@H](C)Cc1ccc2c(c1)OCO2 [S-(+)-3,4-MDMA]	no effect	no effect	no effect	not associated with significant changes	significantly reduced										

Source: patent publication US20230310368A1, “MDMA ENANTIOMERS” (Mind Medicine, Inc., priority 2021, published 2023)
